Data reported in US20250230193A1, “CYCLIC COMPOUND HAVING SELECTIVE KRAS INHIBITORY EFFECT ON HRAS AND NRAS” (CHUGAI SEIYAKU KABUSHIKI KAISHA, priority 2022, published 2025).

What was measured:
[1] = molecular target: GDP-bound NRAS wild-type protein (Homo sapiens, UniProt P01111); experiment: Binding to NRAS by surface plasmon resonance (SPR), Single Cycle Kinetics; settings: SPR, GDP-bound NRAS wild-type vs GDP-bound KRAS wild-type
[2] = molecular target: GDP-bound HRAS wild-type protein (Homo sapiens, UniProt P01112); experiment: Binding to HRAS by surface plasmon resonance (SPR), Single Cycle Kinetics; settings: SPR, GDP-bound HRAS wild-type vs GDP-bound KRAS wild-type
Chain of GDP-bound HRAS wild-type protein (P01112 whole entry): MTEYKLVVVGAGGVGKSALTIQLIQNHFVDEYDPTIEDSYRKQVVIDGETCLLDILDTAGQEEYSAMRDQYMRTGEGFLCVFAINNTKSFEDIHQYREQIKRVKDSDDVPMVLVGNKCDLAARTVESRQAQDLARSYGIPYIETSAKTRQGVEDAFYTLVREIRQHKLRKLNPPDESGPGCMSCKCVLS

Chain of GDP-bound NRAS wild-type protein (P01111 whole entry): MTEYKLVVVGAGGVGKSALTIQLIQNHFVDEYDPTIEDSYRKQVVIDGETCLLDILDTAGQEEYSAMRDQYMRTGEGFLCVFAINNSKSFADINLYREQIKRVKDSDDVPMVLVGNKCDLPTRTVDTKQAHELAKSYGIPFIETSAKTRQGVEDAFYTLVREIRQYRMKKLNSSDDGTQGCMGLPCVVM

CC[C@H](C)[C@@H]1NC(=O)[C@H](C2CC2)N(C)C(=O)C[C@@H](C(=O)N(C)CC)N(C)C(=O)[C@H](C2CCCC2)N(C)C(=O)C2(CCC2)NC(=O)[C@@H]2C[C@H](C)CN2C(=O)[C@H](CCc2ccc(C(F)(F)F)c(OC)c2)NC(=O)CN(C)C(=O)[C@H](Cc2ccc(C(F)(F)F)cc2)N2CC/C=C\C[C@@H](C2=O)N(C)C(=O)CN(C)C1=O [PP2069]
NRAS/KRAS (ratio of KD value with respect to NRAS to KD value with respect to KRAS) [1]: AA (a compound having 20 or more is denoted as AA) | HRAS/KRAS (ratio of KD value with respect to HRAS to KD value with respect to KRAS) [2]: A (a compound having 10 or more and less than 20 is denoted as A)

CCCN(C)C(=O)[C@@H]1CC(=O)N(C)[C@@H](C2CC2)C(=O)N[C@@H]([C@@H](C)CC)C(=O)N(C)CC(=O)N(C)[C@H]2C/C=C\CCN(C2=O)[C@@H](Cc2ccc(C(F)(F)F)cc2)C(=O)N(C)CC(=O)N[C@@H](CCc2ccc(C(F)(F)F)c(OC)c2)C(=O)N2C[C@@H](C)C[C@H]2C(=O)NC2(CCC2)C(=O)N(C)[C@@H](C2CCCC2)C(=O)N1C [PP2070]
NRAS/KRAS (ratio of KD value with respect to NRAS to KD value with respect to KRAS) [1]: A (a compound having 10 or more and less than 20 is denoted as A) | HRAS/KRAS (ratio of KD value with respect to HRAS to KD value with respect to KRAS) [2]: A (a compound having 10 or more and less than 20 is denoted as A)

CC[C@H](C)[C@@H]1NC(=O)[C@H](C2CCC2)N(C)C(=O)C[C@@H](C(=O)N(C)CC)N(C)C(=O)[C@H](C2CCCC2)N(C)C(=O)C2(CCC2)NC(=O)[C@@H]2C[C@H](C)CN2C(=O)[C@H](CCc2ccc(C(F)(F)F)c(OC)c2)NC(=O)CN(C)C(=O)[C@H](Cc2ccc(C(F)(F)F)cc2)N2CC/C=C\C[C@@H](C2=O)N(C)C(=O)CN(C)C1=O [PP2071]
NRAS/KRAS (ratio of KD value with respect to NRAS to KD value with respect to KRAS) [1]: A (a compound having 10 or more and less than 20 is denoted as A) | HRAS/KRAS (ratio of KD value with respect to HRAS to KD value with respect to KRAS) [2]: A (a compound having 10 or more and less than 20 is denoted as A)

CCCN(C)C(=O)[C@@H]1CC(=O)N(C)[C@@H](C2CCC2)C(=O)N[C@@H]([C@@H](C)CC)C(=O)N(C)CC(=O)N(C)[C@H]2C/C=C\CCN(C2=O)[C@@H](Cc2ccc(C(F)(F)F)cc2)C(=O)N(C)CC(=O)N[C@@H](CCc2ccc(C(F)(F)F)c(OC)c2)C(=O)N2C[C@@H](C)C[C@H]2C(=O)NC2(CCC2)C(=O)N(C)[C@@H](C2CCCC2)C(=O)N1C [PP2072]
NRAS/KRAS (ratio of KD value with respect to NRAS to KD value with respect to KRAS) [1]: A (a compound having 10 or more and less than 20 is denoted as A) | HRAS/KRAS (ratio of KD value with respect to HRAS to KD value with respect to KRAS) [2]: A (a compound having 10 or more and less than 20 is denoted as A)

C#CC[C@H]1C(=O)N[C@@H]([C@@H](C)CC)C(=O)N(C)CC(=O)N(C)[C@H]2C/C=C\CCN(C2=O)[C@@H](Cc2ccc(C(F)(F)F)cc2)C(=O)N(C)CC(=O)N[C@@H](CCc2cc(F)c(C(F)(F)F)c(F)c2)C(=O)N2C[C@H](OCC)C[C@H]2C(=O)NC2(CC(C)(C)C2)C(=O)N(C)[C@@H](C2CCCC2)C(=O)N(C)[C@H](C(=O)N(C)CC)CC(=O)N1C [PP2073]
NRAS/KRAS (ratio of KD value with respect to NRAS to KD value with respect to KRAS) [1]: A (a compound having 10 or more and less than 20 is denoted as A) | HRAS/KRAS (ratio of KD value with respect to HRAS to KD value with respect to KRAS) [2]: A (a compound having 10 or more and less than 20 is denoted as A)

C#CC[C@H]1C(=O)N[C@@H]([C@@H](C)CC)C(=O)N(C)CC(=O)N(C)[C@H]2C/C=C\CCN(C2=O)[C@@H](Cc2ccc(C(F)(F)F)cc2)C(=O)N(C)CC(=O)N[C@@H](CCc2cc(F)c(C(F)(F)F)c(F)c2)C(=O)N2C[C@H](OCC)C[C@H]2C(=O)NC2(CC(C)(C)C2)C(=O)N(C)[C@@H](C2CCCC2)C(=O)N(C)[C@H](C(=O)N(C)CCC)CC(=O)N1C [PP2074]
NRAS/KRAS (ratio of KD value with respect to NRAS to KD value with respect to KRAS) [1]: A (a compound having 10 or more and less than 20 is denoted as A) | HRAS/KRAS (ratio of KD value with respect to HRAS to KD value with respect to KRAS) [2]: A (a compound having 10 or more and less than 20 is denoted as A)

C#CC[C@H]1C(=O)N[C@@H]([C@@H](C)CC)C(=O)N(C)CC(=O)N(C)[C@H]2C/C=C\CCN(C2=O)[C@@H](Cc2ccc(C(F)(F)F)cc2)C(=O)N(C)CC(=O)N[C@@H](CCc2cc(F)c(C(F)(F)F)c(F)c2)C(=O)N2C[C@@H](C)C[C@H]2C(=O)NC2(CC(C)(C)C2)C(=O)N(C)[C@@H](C2CCCC2)C(=O)N(C)[C@H](C(=O)N(C)CC)CC(=O)N1C [PP2075]
NRAS/KRAS (ratio of KD value with respect to NRAS to KD value with respect to KRAS) [1]: A (a compound having 10 or more and less than 20 is denoted as A) | HRAS/KRAS (ratio of KD value with respect to HRAS to KD value with respect to KRAS) [2]: A (a compound having 10 or more and less than 20 is denoted as A)

C#CC[C@H]1C(=O)N[C@@H]([C@@H](C)CC)C(=O)N(C)CC(=O)N(C)[C@H]2C/C=C\CCN(C2=O)[C@@H](Cc2ccc(C(F)(F)F)cc2)C(=O)N(C)CC(=O)N[C@@H](CCc2cc(F)c(C(F)(F)F)c(F)c2)C(=O)N2C[C@@H](C)C[C@H]2C(=O)NC2(CC(C)(C)C2)C(=O)N(C)[C@@H](C2CCCC2)C(=O)N(C)[C@H](C(=O)N(C)CCC)CC(=O)N1C [PP2076]
NRAS/KRAS (ratio of KD value with respect to NRAS to KD value with respect to KRAS) [1]: A (a compound having 10 or more and less than 20 is denoted as A) | HRAS/KRAS (ratio of KD value with respect to HRAS to KD value with respect to KRAS) [2]: A (a compound having 10 or more and less than 20 is denoted as A)

C#CC[C@H]1C(=O)N[C@@H]([C@@H](C)CC)C(=O)N(C)CC(=O)N(C)[C@H]2C/C=C\CCN(C2=O)[C@@H](Cc2ccc(C(F)(F)F)cc2)C(=O)N(C)CC(=O)N[C@@H](CCc2cc(F)c(C(F)(F)F)c(F)c2)C(=O)N2C[C@@H](C)C[C@H]2C(=O)NC2(CCC2)C(=O)N(C)[C@@H](C2CCCC2)C(=O)N(C)[C@H](C(=O)N(C)CCC)CC(=O)N1C [PP2077]
NRAS/KRAS (ratio of KD value with respect to NRAS to KD value with respect to KRAS) [1]: A (a compound having 10 or more and less than 20 is denoted as A) | HRAS/KRAS (ratio of KD value with respect to HRAS to KD value with respect to KRAS) [2]: A (a compound having 10 or more and less than 20 is denoted as A)

CC[C@H](C)[C@@H]1NC(=O)[C@H](C(C)C)N(C)C(=O)C[C@@H](C(=O)N(C)CC)N(C)C(=O)[C@H](C2CCCC2)N(C)C(=O)C2(CCC2)NC(=O)[C@@H]2C[C@H](C)CN2C(=O)[C@H](CCc2cc(F)c(C(F)(F)F)c(F)c2)NC(=O)CN(C)C(=O)[C@H](Cc2ccc(C(F)(F)F)cc2)N2CC/C=C\C[C@@H](C2=O)N(C)C(=O)CN(C)C1=O [PP2078]
NRAS/KRAS (ratio of KD value with respect to NRAS to KD value with respect to KRAS) [1]: AA (a compound having 20 or more is denoted as AA) | HRAS/KRAS (ratio of KD value with respect to HRAS to KD value with respect to KRAS) [2]: A (a compound having 10 or more and less than 20 is denoted as A)

CCCN(C)C(=O)[C@@H]1CC(=O)N(C)[C@@H](C(C)C)C(=O)N[C@@H]([C@@H](C)CC)C(=O)N(C)CC(=O)N(C)[C@H]2C/C=C\CCN(C2=O)[C@@H](Cc2ccc(C(F)(F)F)cc2)C(=O)N(C)CC(=O)N[C@@H](CCc2cc(F)c(C(F)(F)F)c(F)c2)C(=O)N2C[C@@H](C)C[C@H]2C(=O)NC2(CCC2)C(=O)N(C)[C@@H](C2CCCC2)C(=O)N1C [PP2079]
NRAS/KRAS (ratio of KD value with respect to NRAS to KD value with respect to KRAS) [1]: A (a compound having 10 or more and less than 20 is denoted as A) | HRAS/KRAS (ratio of KD value with respect to HRAS to KD value with respect to KRAS) [2]: A (a compound having 10 or more and less than 20 is denoted as A)
